Results published in patent publication US8986419B2, “Mixture for treating fertilizers” (SKW Stickstoffwerke Piesteritz GmbH, priority 2010, dated 2015).
Values after ≈ are worked out from the molar mass of the structure shown. Values joined by “and” are separate entries in the source; they are usually repeats but may differ in a detail not shown here. Identical values can stand only once.

Legend:
[1] = aqueous formulation; cited from earlier work
[2] = Laboratory test on the volatility of 3-methylpyrazole, storage in open crystallising dishes at room temperature; assay type: physicochemical; conditions: open crystallising dish diameter 5 cm
[3] = Simulated open storage test of treated urea granules, TZ/3-MP content determined analytically; assay type: physicochemical; conditions: storage period 6 weeks, 9 kg in open-topped vessels, ambient temperature and humidity; listed as pure 3-methylpyrazole sprayed on
Procedure: The urea granules enclosed in the cement mixer according to Example 8 were stored in a quantity of 9 kg to simulate storage in a pile in open-topped cylindrical vessels (height 30 cm, diameter 30 cm) at ambient temperature and humidity. After a storage period of 2, 4 and 6 weeks average samples were taken and the nitrification inhibitor TZ/3-MP content was determined analytically.
Enclosed urea granules according to Example 9 were stored in the same way in parallel, and average samples taken from these were investigated analytically.

SMILES	solubility [1] [mg/mL]	loss in % ([2]; storage time 1 day) [%]	loss in % ([2]; storage time 2 days) [%]	loss in % ([2]; storage time 3 days) [%]	loss in % ([2]; storage time 6 days) [%]	loss in % ([2]; storage time 12 days) [%]	Active substance losses in relation to the starting value, MP (%) [3]
N#CN=C(N)N [dicyandiamide, Dicyandiamide]	32 (≈ 381 mM)						
c1nc[nH]n1 [TZ, 1,2,4-triazole]		0	0	1	2	2	
Cc1cc[nH]n1 [Example 3-MP, 3-methylpyrazole]		12	26	40	87	100	89 ^1% and 89%
